Measured values taken from article PMC8329300, “X-ray crystallography reveals molecular recognition mechanism for sugar binding in a melibiose transporter MelB” (Communications Biology, 2021).
Where “and” joins values, the source holds several entries; their conditions need not be identical. Identical values can stand only once. Like-named read-outs stand apart in the source and are kept apart here.

Assays:
[1] = target: T1, WT MelBSt (Salmonella typhimurium, UniProt P30878); assay: biochemical; type: binding; conditions: for effect on Trp→D2G FRET of D2G-bound protein (displacement): added to D2G-bound WT MelBSt; for IC50: IC50 of galactoside displacement on bound D2G, DDMB, 10 μM D2G, value could be over-estimated
T1 construct: Cys scanning mutagenesis for the full-length MelBSt; His10 (C); made in house; host or cells: E. coli DW2
Description: (§1) Fig. 1 Functional characterizations. a [^3H] Melibiose transport time course with intact cells. […] Inset, melibiose fermentation assay. Transformants with DW2 strain were plated on MacConkey agar plates containing 30 mM melibiose as the sole carbohydrate source and pH sensor neutral red, and incubated at 37 °C for 16–18 h before imaging. Number of tests = 3, from different batch of cells or duplicate measurements from same batch of sample. b Ligand binding by Trp→dansyl galactoside (D^2G) FRET assay. Purified proteins at 1 μM concentration in 20 mM Tris-HCl, pH 7.5, 100 mM CholCl, 10% glycerol, and 0.03% UDM were subjected to steady-state fluorescence measurements as described in Methods. On the time-trace, 1.8 μL of 1 mM D^2G at 10 μM was added into 180 μL of protein solutions at 1-min point, followed by supplying 10 μL of 5 mM DDMB or 5 mM α-NPG to displace the bound D^2G. For testing Na^+ or Li^+ binding, they are added into the solution before displacement with the second sugar. The structure of DDMB or α-NPG is shown in a chair form, and the carbon positions are labeled. Glycosidic bonds are indicated by arrows. Both are α-galactosides containing a substituent at the anomeric carbon-1. The data were from duplicate measurements.
(§2) Steady-state fluorescence measurements were performed with an AMINCO-Bowman series 2 spectrometer with purified MelBSt at 1 μM in 20 mM Tris-HCl, pH 7.5, 100 mM CholCl, 10% glycerol, 0.03% UDM. Using an excitation wavelength at 290 nm, the emission intensity was recorded at 490 nm. On a time-trace, D^2G, NaCl or LiCl, then DDMB or α-NPG, were sequentially added into the protein solutions at a 1 min-interval. […] An identical volume of water was used for the control. The decrease in intensity after each addition of DDMB or α-NPG was corrected by the dilution effect and plotted as a function of the accumulated α-NPG concentrations or estimated DDMB concentrations. The 50% inhibitory concentration (IC50) was determined by fitting a hyperbolic function to the data (OriginPro 2020b). The final concentration of each detergent is estimated to be 234 μM, which is less than their CMC value for (DDMB, 295 μM).
(§3) Supplementary Figure 2. Determination of DDMB binding affinity to MelBSt. (a) Titration with DDMB or a-NPG. MelBSt in 20 mM Tris-HCl, pH 7.5, 100 mM CholCl, 10% glycerol, 0.03% UDM without (1) or with 100 mM NaCl (2) were added with D2G at 10 μM at 1-min time point as indicated by triangle symbols on the Trp®dansyl FRET time trace. Starting at the 2-min of time point, DDMB or a-NPG solution was supplemented consecutively at a 1-min interval into MelBSt solution till no change in fluorescence intensity reached as indicated in star symbols. DDM and UDM were used as negative controls. 1% DDM or UDM was titrated into the mixture, The […]
(§4) At 2-min time point, additions of galactosides were colored in pink, a-NPG in yellow, UDM in blue, DDM in light blue, water in gray traces, respectively. (b) IC50 determination. The intensity decrease at each titration were corrected by the dilution effect, and plotted as a function of the accumulated DDMB or α-NPG concentration. The 50% inhibitory concentration (IC50) was determined by fitting the data to a hyperbolic function (OriginPro 2020b). Results are presented in […]
(§5) (1 picture or pasted object on this page, not shown here)

[2] = target: T2, D59A MelBSt (Salmonella typhimurium, UniProt P30878, D59A); assay: Trp→dansyl galactoside (D2G) FRET time trace (D59A); type: binding; conditions: no Na+ or Li+ stimulation
T2 construct: Cys scanning mutagenesis for the full-length MelBSt; His10 (C); made in house; host or cells: E. coli DW2
Description: Fig. 1 Functional characterizations. a [^3H] Melibiose transport time course with intact cells. E. coli DW2 strain (melB^−, lacZ^−Y^−) expressed with the WT, D59C, or D59A MelBSt mutants were subjected to [^3H]melibiose active transport assay at 0.4 mM and 10 mCi/mmol in the presence of 20 mM or 100 mM NaCl or LiCl by a fast filtration method. Inset, melibiose fermentation assay. Transformants with DW2 strain were plated on MacConkey agar plates containing 30 mM melibiose as the sole carbohydrate source and pH sensor neutral red, and incubated at 37 °C for 16–18 h before imaging. Number of tests = 3, from different batch of cells or duplicate measurements from same batch of sample. b Ligand binding by Trp→dansyl galactoside (D^2G) FRET assay. Purified proteins at 1 μM concentration in 20 mM Tris-HCl, pH 7.5, 100 mM CholCl, 10% glycerol, and 0.03% UDM were subjected to steady-state fluorescence measurements as described in Methods. […]
Steady-state fluorescence measurements were performed with an AMINCO-Bowman series 2 spectrometer with purified MelBSt at 1 μM in 20 mM Tris-HCl, pH 7.5, 100 mM CholCl, 10% glycerol, 0.03% UDM. Using an excitation wavelength at 290 nm, the emission intensity was recorded at 490 nm. […]

[3] = target: T3, D59C MelBSt (Salmonella typhimurium, UniProt P30878, D59C); assay: Trp→dansyl galactoside (D2G) FRET time trace and IC50 of D2G displacement (D59C); type: binding; conditions: IC50 of galactoside displacement on bound D2G, DDMB, 10 μM D2G, value could be over-estimated
T3 construct: Cys scanning mutagenesis for the full-length MelBSt; His10 (C); made in house; host or cells: E. coli DW2
Description: as §1, §2, §3, §4, §5

[4] = target: T1, WT MelBSt; assay: biochemical; type: binding
Description: (§6) All ITC ligand-binding assays were performed with the TA Instruments (Nano-ITC device) at 25 °C. In a typical experiment, the titrand (MelBSt) in the ITC sample cell was titrated with the specified titrant (placed in the Syringe) by an incremental injection of 2-µL aliquots at an interval of 300 s at a constant stirring rate of 250 r.p.m. All samples were degassed using a TA Instruments Degassing Station (model 6326) for 15 min prior to the titration. Data processing was performed with the NanoAnalyze (version 3.6.0 software) provided with the ITC equipment. The normalized heat changes were subtracted from the heat of dilution elicited by last few injections, where no further binding occurred; the corrected heat changes were plotted against the molar ratio of titrant versus titrand. The values for association constant (Ka) value were determined by fitting the data with a one-site independent-binding model. At most cases, the binding stoichiometry (N) number was fixed to 1 since it is a known parameter, which can restrain the data fitting and achieve more accurate results. The dissociation constant Kd = 1/Ka.
(§7) Supplementary Figure 1. ITC measurements. ITC measurements were performed at 25 °C as described in Methods. (a) Binding thermography. For all tests, ligands and proteins are buffer- […]
(§8) (1 picture or pasted object on this page, not shown here) […]
(§9) matched. For melibiose binding measurements, a solution of 80 mM or 10 mM in the absence or presence of NaCl at 100 mM, was injected into the ITC sample cell containing the WT MelBSt at 80 μM without or with 100 mM NaCl, respectively. With the D59C mutant, […] was used. For α-NPG binding measurements, 0.5 mM or 0.4 mM solution was used to titrate the WT or D59C mutant at 50 μM in the absence or presence or 100 mM NaCl, respectively. For the Na+ or Li+ binding measurements, 5 mM or 2 mM solution was used to titrate WT MelBSt at 80 μM without or with 50 mM melibiose, respectively; 40 mM solutions was used to titrate the D59C mutant. (b) binding isotherm. Curve fit was carried out with a one-site independent-binding model included in the NanoAnalyze software (version 3.6.0).

[5] = target: T3, D59C MelBSt; assay: biochemical; type: binding; conditions: even with increased concentration or in the presence of melibiose; Kd not determinable
Description: as §6, §7, §8, §9

[6] = target: T1, WT MelBSt; conditions: ITC 25 °C, data from publication or averaged with more tests, read-out: Kd, Na+ binding, cited from earlier work

T1 sequence (P30878 whole entry): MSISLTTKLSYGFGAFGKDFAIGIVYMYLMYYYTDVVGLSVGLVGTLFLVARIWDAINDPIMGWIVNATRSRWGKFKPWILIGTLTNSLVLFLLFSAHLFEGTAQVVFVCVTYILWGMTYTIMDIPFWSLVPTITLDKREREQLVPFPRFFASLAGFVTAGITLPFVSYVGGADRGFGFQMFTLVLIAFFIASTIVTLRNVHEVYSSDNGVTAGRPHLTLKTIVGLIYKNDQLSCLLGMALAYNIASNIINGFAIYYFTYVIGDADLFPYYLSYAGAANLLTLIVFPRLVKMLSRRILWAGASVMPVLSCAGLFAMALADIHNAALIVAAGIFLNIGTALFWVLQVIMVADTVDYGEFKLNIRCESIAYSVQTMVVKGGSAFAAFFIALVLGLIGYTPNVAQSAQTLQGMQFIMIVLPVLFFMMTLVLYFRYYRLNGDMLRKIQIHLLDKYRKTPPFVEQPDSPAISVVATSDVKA
T3 sequence (P30878 whole entry D59C): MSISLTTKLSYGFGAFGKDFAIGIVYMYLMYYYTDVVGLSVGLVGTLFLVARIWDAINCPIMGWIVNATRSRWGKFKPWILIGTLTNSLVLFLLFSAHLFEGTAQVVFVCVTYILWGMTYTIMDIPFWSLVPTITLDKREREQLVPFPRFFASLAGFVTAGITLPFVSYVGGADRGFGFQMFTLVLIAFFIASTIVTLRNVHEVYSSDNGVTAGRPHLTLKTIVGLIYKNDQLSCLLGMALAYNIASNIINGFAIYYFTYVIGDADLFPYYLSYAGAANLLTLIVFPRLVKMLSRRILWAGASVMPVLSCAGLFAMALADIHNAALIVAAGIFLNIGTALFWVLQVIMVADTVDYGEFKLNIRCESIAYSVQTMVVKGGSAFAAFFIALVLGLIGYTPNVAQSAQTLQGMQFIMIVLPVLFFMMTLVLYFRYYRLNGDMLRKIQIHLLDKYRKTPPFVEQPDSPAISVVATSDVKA
T2 sequence (P30878 whole entry D59A): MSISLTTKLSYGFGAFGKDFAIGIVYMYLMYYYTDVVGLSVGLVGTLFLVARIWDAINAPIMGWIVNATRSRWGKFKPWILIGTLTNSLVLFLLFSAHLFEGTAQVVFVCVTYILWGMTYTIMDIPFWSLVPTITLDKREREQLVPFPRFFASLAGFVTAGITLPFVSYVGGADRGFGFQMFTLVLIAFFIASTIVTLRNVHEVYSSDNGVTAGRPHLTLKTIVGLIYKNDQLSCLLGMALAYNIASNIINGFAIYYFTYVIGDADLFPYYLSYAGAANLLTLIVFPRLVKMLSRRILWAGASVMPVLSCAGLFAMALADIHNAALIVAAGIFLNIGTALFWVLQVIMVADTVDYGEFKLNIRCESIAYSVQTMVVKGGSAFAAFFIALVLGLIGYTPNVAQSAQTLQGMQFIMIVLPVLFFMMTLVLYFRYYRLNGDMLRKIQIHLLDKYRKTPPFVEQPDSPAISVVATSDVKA

In the case of `CCCCCCCCCCCCO[C@@H]1O[C@H](CO)[C@@H](O[C@H]2O[C@H](CO)[C@@H](O)[C@H](O)[C@H]2O)[C@H](O)[C@H]1O` [DDM, dodecyl-β-D-maltopyranoside], the “effect on Trp→D2G FRET of D2G-bound protein (displacement)” value [1] is reported as “only showed a dilution effect similar to the addition of water”.
In the case of `CCCCCCCCCCCCOC1OC(COC2OC(CO)C(O)C(O)C2O)C(O)C(O)C1O` [DDMB, dodecyl-β-D-melibioside], the “ligand binding by Trp→D2G FRET” value [2] is reported as “binds”, the IC50 ([3]; Apo) is reported as 20 µM and 20.2 µM and the IC50 ([3]; Na+ (100 mM)) is reported as 23.6 ± 3.9 µM. The IC50 ([1]; Apo) was 26.1 ± 5.46 µM, the IC50 ([1]; Na+ (100 mM)) was 4.79 ± 0.28 µM and the “effect on Trp→D2G FRET of D2G-bound protein (displacement)” value [1] was “large decrease in fluorescent intensity”. For the same compound, the “decrease of IC50 in the presence of Na+” value ([1]; apo vs Na+) was 5 fold.
For `[Li+]` [Li^+], the Kd ([4]; Apo, ITC 25 °C, read-out: Kd, Li+ binding) was 400 ± 100 µM, the “decrease of Kd in the presence of melibiose” value ([4]; Li+ binding, apo vs melibiose) was 6 fold and the Kd ([4]; Melibiose (50 mM), ITC 25 °C, read-out: Kd, Li+ binding) was 70 ± 10 µM. The “heat changes derived from cation binding (ITC)” value [5] was “quite small”.
For `[Na+]` [Na^+], the Kd ([6]; Apo) is listed as 680 ± 30 µM, the Kd ([6]; Melibiose (50 mM)) is listed as 80 ± 10 µM and the “cooperativity, change of Kd with melibiose” value ([4]; Na+ binding, apo vs melibiose) is listed as 8 fold. The Kd ([4]; apo MelB, rebuttal letter, read-out: affinity of apo MelB) was 500 µM and the “heat changes derived from cation binding (ITC)” value [5] was “quite small”.
In the case of `CCCCCCCCCCCO[C@@H]1O[C@H](CO)[C@@H](O[C@H]2O[C@H](CO)[C@@H](O)[C@H](O)[C@H]2O)[C@H](O)[C@H]1O` [UDM, undecyl-β-D-maltopyranoside], the “effect on Trp→D2G FRET of D2G-bound protein (displacement)” value [1] is reported as “only showed a dilution effect similar to the addition of water”.
